Experimental data taken from article PMC10687260, “1,3-Diphenylureido hydroxamate as a promising scaffold for generation of potent antimalarial histone deacetylase inhibitors” (Scientific Reports, 2023).
pIC50: −log10 of the molar value. Like-named read-outs stand apart in the source and are kept apart here.

Tests used:
[1] = tested on: acetylated histone H4; test: Western blot of acetylated histone H4 in infected erythrocytes; assay type: cell-based, Plasmodium falciparum; settings: 10 × IC50 for 4 h, trophozoites, vs DMSO
Description: (§1) Figure 5 Hydroxamic acid derivatives as potent in vitro PfHDAC1 inhibitors. […]. Enzyme activity was calculated by normalizing the data against the DMSO treated samples and discounting the background. Data are presented as shown above, with mean ± S.D. (n = 2). […]. Comparison of group/concentration against the DMSO control is represented as † for P < 0.0001. […]. Numbers on side of the bands represent the predicted mass (kDa) for each protein. (C,D) Band quantification of histone H3 (C) and H4 (D), respectively, normalizing their acetylated detection against their unmodified version. Differences to this value were analyzed by one way ANOVA using the Dunnett’s post correction, comparing each group against the DMSO control, as rank tests where P values are explicitly depicted.
(§2) Western Blot analysis. […]. Proteins were transferred to PVDF membranes, 5% non-fat dry milk in TBS with Tween 20 (0.1%) was used as blocking agent for 1 h at room temperature. After, incubated with the antibodies overnight at 4 °C (Acetyl Histone H3 Lys9 C5B11 Cell Signaling, Acetyl Histone H4 Lys16 E2B8W Cell Signaling, Histone H3 96C10 Cell Signaling and Histone H4 D2X4V Cell Signaling). For the analysis of protein acetylation levels, the membranes were stripped and re-probed with the corresponding anti-total protein. Mouse monoclonal anti-α-Tubulin (B512 Sigma-Aldrich) was used as loading control. Detection was performed by enhanced chemiluminescence using horseradish peroxidase-conjugated secondary antibodies (Vector Laboratories, Burlingame, CA, USA) and SuperSignal TM West Pico PLUS Chemiluminescent substrate kit (Thermo Scientific). Images were acquired using ChemiDoc TM Imaging System (BioRad Laboratories, CA, USA). Quantitative densitometry was carried out using ImageLab software (Bio-Rad Laboratories, CA, USA). The volume density of the chemiluminescent bands was calculated as an integrated optical density × mm^2 after background correction from each independent experiment (N = 3).

[2] = tested on: acetylated histone H3; test: Western blot of acetylated histone H3 in infected erythrocytes; assay type: cell-based, Plasmodium falciparum; settings: 10 × IC50 for 4 h, trophozoites, vs DMSO
Description: as §1, §2

[3] = tested on: P. falciparum Dd2; test: Antiplasmodial SYBR Green I proliferation assay, P. falciparum Dd2; assay type: cell-based; settings: Plasmodium falciparum
Text: (§3) Antiplasmodial activity against P. falciparum 3D7 (A, C and E) and P. falciparum Dd2 (B, D, F). […] Curves were plotted using non-linear regression based on means from three independent experiments measured in triplicate. Error bars indicate standard deviation, whose values are provided in the respective table.
(§4) Plasmodium falciparum culture and antiplasmodial activity. […] Development, parasitaemia, and morphology of parasites were monitored by light microscopy of thin blood smears stained according to the Romanowsky method (Panótico Rápido staining kit; Laborclin, Pinhais, Paraná, Brazil). […] Fresh 0^+ blood was generously provided by “Hospital Novo Atibaia” (Atibaia, SP, Brazil), and approved by the ethics committee at ICB-USP. The antiplasmodial effect of all compounds was validated against P. falciparum 3D7 strain conducting SYBR Green I (Invitrogen) drug assays as previously reported[30],[46] as a modification of the original procedure. […] Parasite proliferation was measured by the DNA load via fluorescence, using 100 μL of a lysis buffer with SYBR Green I (0.02% v/v) and incubated for 1 h at room temperature in the dark. […] Focal and gain adjustment was performed using the non-treated controls (highest expected fluorescence signal). Data was acquired via the CLARIOstar (V5.20) and MARS software, manually scaled to 0–100%, and plotted using GraphPad Prism (v9.5.2 for Windows, GraphPad Software, La Jolla California USA, www.graphpad.com). Non-treated parasites, the highest solvent concentration on parasites, CQ on parasites, and the highest drug concentration in the medium were used as controls for maximal growth, solvent control, positive biological control, and native drug fluorescence, respectively.

[4] = tested on: P. falciparum 3D7; test: Antiplasmodial SYBR Green I proliferation assay, P. falciparum 3D7; assay type: cell-based, Plasmodium falciparum; settings: read-out: IC50 Pf3D7
Text: as §3, §4

[5] = tested on: HepG2 cells; test: Cytotoxicity in human HepG2 cells (WST-1); assay type: cell-based; settings: read-out: IC50 HepG2
Description: Cytotoxicity in human HepG2 cells.[47] […] Cytotoxic effects of compounds were assessed using the cell proliferation reagent WST-1 (Roche; CELLPRO-RO) in a 96-well plate-based screening assay. HepG2 cells were seeded at 10^4 cells/well (100 μL) in 96-well flat-bottom plates (Sarstedt) the night before the experiment to allow attachment of cells. The next day, two-fold serial dilutions of compounds were prepared in fresh medium in an extra plate, and the medium of cells was replaced by the medium containing the compound dilutions. Non-treated cells (max. proliferation), cells treated with the maximal solvent concentration (DMSO; solvent control), and medium with the maximal compound concentration (native absorbance) used as controls. […] Subsequently, 10 μL WST-1 was added to each well and plates were incubated for additional 4 h under standard conditions. WST-1 is a tetrazolium salt and is metabolised by the mitochondrial succinate-tetrazolium-reductase system of living cells and forms formazan, whose absorbance was measured at 450 nm. Absorbance at 630 nm was assessed to check for protein and precipitation background. Both measurements were acquired via the CLARIOstar (V5.20) and MARS software, manually scaled to 0–100%, and plotted with GraphPad Prism (version 9.5.2 for Windows, GraphPad Software, La Jolla California USA).

[6] = target: T1, PfHDAC1 (Plasmodium falciparum, UniProt Q7K6A1); test: In vitro PfHDAC1 enzymatic assay; assay type: biochemical
T1 construct: purchased BPS Bioscience (San Diego, CA)
T1 sequence (Q7K6A1 1-449): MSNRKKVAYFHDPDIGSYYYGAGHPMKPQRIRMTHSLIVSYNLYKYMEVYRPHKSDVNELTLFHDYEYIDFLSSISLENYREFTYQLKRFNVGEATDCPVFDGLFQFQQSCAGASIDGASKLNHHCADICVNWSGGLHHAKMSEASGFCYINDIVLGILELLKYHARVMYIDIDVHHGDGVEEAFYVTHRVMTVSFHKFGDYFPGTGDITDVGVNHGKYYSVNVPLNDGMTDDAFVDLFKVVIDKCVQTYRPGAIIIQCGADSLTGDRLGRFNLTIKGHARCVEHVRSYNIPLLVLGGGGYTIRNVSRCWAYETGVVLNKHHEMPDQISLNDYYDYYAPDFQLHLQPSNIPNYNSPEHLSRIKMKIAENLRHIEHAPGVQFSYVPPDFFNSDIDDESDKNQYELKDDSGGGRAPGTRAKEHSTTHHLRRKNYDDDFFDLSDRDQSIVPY
Description: In vitro PfHDAC1 enzymatic assay. PfHDAC inhibition assays were performed by BPS Bioscience (San Diego, CA). […] Then, each DMSO solution was directly diluted 10 × fold into the HDAC assay buffer for an intermediate dilution of 10% DMSO in HDAC assay buffer. Then, 5 µL of the intermediate dilution was added to a 50 µL reaction so that the final concentration of DMSO is 1% in all the reactions. […] Fluorescence intensity was measured at an excitation of 360 nm and an emission of 460 nm using a Tecan Infinite M1000 microplate reader. […] The fluorescent intensity data were analyzed using GraphPad Prism (v9.5.2). In the absence of the compound, the fluorescent intensity (Ft) in each data set was defined as 100% activity. In the absence of HDAC, the fluorescent intensity (Fb) in each data set was defined as 0% activity. The percent activity in the presence of each compound was calculated according to the following equation: % activity = (F-Fb)/(Ft-Fb), where “F” is the fluorescent intensity in the presence of the compound.

[7] = tested on: P. falciparum 3D7; settings: Fig. 1A; cited from earlier work
[8] = target: T2, CYP450 2C9 (Homo sapiens, UniProt P11712); test: CYP450 inhibition in human liver microsomes, 2C9; assay type: in vitro ADME; settings: 10 µM
T2 construct: 10 μM compound was incubated with human liver microsomes and selective marker substrates; from tissue; host or cells: human liver microsomes
T2 sequence (P11712 whole entry): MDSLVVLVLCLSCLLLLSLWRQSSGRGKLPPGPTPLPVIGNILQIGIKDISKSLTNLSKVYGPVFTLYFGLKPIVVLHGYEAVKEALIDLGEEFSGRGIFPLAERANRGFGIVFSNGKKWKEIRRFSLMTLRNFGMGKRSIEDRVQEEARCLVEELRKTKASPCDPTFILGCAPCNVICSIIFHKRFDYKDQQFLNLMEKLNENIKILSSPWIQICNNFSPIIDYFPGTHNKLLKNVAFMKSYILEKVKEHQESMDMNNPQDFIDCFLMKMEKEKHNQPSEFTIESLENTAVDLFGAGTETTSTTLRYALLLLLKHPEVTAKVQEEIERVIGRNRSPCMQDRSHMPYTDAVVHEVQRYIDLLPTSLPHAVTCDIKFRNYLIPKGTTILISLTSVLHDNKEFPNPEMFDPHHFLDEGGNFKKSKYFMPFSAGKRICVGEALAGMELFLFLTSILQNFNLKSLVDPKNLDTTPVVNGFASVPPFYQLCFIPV

[9] = target: T3, CYP450 2D6 (Homo sapiens, UniProt P10635); test: CYP450 inhibition in human liver microsomes, 2D6; assay type: in vitro ADME; settings: 10 µM
T3 construct: 10 μM compound was incubated with human liver microsomes and selective marker substrates; from tissue; host or cells: human liver microsomes
T3 sequence (P10635 whole entry): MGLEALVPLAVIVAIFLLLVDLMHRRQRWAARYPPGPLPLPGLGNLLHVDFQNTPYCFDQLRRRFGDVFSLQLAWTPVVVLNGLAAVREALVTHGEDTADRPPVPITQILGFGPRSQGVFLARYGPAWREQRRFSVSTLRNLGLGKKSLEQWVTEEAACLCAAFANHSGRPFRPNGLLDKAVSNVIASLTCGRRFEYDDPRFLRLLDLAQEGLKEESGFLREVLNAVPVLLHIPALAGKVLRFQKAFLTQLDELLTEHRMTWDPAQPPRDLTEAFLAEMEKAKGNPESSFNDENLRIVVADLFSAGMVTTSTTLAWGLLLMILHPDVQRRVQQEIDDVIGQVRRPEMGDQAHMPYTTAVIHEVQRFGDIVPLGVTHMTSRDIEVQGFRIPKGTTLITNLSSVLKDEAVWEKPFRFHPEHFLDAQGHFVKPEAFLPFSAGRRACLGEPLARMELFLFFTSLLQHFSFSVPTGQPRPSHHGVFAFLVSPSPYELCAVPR

[10] = target: T4, CYP1A2 (Homo sapiens, UniProt P05177); test: CYP450 inhibition in human liver microsomes, 1A2; assay type: in vitro ADME; settings: 10 µM
T4 construct: 10 μM compound was incubated with human liver microsomes and selective marker substrates; from tissue; host or cells: human liver microsomes
T4 sequence (P05177 1-516): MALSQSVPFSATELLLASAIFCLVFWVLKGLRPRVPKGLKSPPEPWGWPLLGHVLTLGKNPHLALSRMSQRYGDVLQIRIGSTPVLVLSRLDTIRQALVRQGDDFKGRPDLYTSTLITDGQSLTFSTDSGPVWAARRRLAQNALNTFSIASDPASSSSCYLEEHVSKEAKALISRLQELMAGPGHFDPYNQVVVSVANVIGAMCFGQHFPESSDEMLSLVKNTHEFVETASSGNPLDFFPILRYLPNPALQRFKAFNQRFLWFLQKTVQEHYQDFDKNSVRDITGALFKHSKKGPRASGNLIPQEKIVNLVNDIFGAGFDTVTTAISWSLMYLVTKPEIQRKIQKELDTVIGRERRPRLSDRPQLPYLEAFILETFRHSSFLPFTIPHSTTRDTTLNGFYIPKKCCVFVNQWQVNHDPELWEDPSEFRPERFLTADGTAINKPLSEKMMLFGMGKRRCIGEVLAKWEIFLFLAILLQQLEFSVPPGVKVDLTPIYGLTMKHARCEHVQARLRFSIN

CCCCN(Cc1ccc(C(=O)NO)cc1)C(=O)Nc1ccccc1 [Nexturastat A (16), Nexturastat A, reference compound]
Acetylated-H4 level (normalised to unmodified H4) [1]: non-statistically significant increase | Acetylated-H3 level (normalised to unmodified H3) [2]: non-statistically significant increase | pIC50 ([3]; DD2, multidrug/CQ-resistant strain, read-out: IC50 P. falciparum Dd2): 6.54 | pIC50 ([4]; 96 h, values in brackets 95% confidence intervals): 6.64 | pIC50 ([4]; Plasmodium falciparum, 3D7, 96 h, 96 h, values in brackets 95% confidence intervals): 6.68 | pIC50 ([5]; Homo sapiens, HepG2, 48 h, WST-1): 4.67 | inhibition at 1 µM ([6]; recombinant PfHDAC1): 58% | inhibition at 10 µM ([6]; 10 µM, recombinant PfHDAC1): 92%

O=C(/C=C/c1cccc(S(=O)(=O)Nc2ccccc2)c1)NO [belinostat]
pIC50 [7]: 7.22

CCN(CC)CCCC(C)Nc1ccnc2cc(Cl)ccc12 (centres unmarked) [Chloroquine, reference compound]
pIC50 ([3]; DD2, read-out: IC50 P. falciparum Dd2): 6.37 | pIC50 ([4]; Plasmodium falciparum, 3D7, 96 h): 7.82 | pIC50 ([5]; Homo sapiens, HepG2, 48 h): < 4.00

Cc1[nH]c2ccccc2c1CCNCc1ccc(/C=C/C(=O)NO)cc1 [panobinostat]
pIC50 [7]: 8.00

Nc1ccccc1NC(=O)c1ccc(CNC(=O)OCc2cccnc2)cc1 [entinostat]
pIC50 [7]: 5.11

Cn1cc(CNCC2CCN(c3ncc(C(=O)NO)cn3)CC2)c2ccccc21 [quisinostat]
pIC50 [7]: 8.30

C=C[C@H]1C[N@@]2CC[C@H]1C[C@@H]2[C@@H](O)c1ccnc2ccc(OC)cc12 [Quinidine, reference compound]
CYP450% inhibition @ 10 µM 2C9 [8]: * (Inhibition < 10%) | CYP450% inhibition @ 10 µM 2D6 [9]: 89% | CYP450% inhibition @ 10 µM 1A2 [10]: * (Inhibition < 10%)

O=C(CCCCCCC(=O)Nc1ccccc1)NO [Vorinostat (SAHA, 1), Vorinostat, reference compound]
Acetylated-H4 level (normalised to unmodified H4) [1]: non-statistically significant increase | Acetylated-H3 level (normalised to unmodified H3) [2]: non-statistically significant increase | pIC50 ([5]; 48 h, WST-1): 5.54 | pIC50 [6]: 6.00 to 7.00 | inhibition at 1 µM ([6]; recombinant PfHDAC1): 83%
